Key:
[1] = biological target: T1, human IRAK4 (Homo sapiens, UniProt Q9NWZ3); assay: Human IRAK4 kinase activity inhibition assay (IRAK4 TR-FRET assay); assay type: biochemical; details: 1 mM ATP, GST-human IRAK4, average or median values
T1 construct: GST (N); made in house; host or cells: baculovirus-infected Hi5 (BTI-TN-5B1-4) insect cells
T1 sequence (Q9NWZ3 1-460): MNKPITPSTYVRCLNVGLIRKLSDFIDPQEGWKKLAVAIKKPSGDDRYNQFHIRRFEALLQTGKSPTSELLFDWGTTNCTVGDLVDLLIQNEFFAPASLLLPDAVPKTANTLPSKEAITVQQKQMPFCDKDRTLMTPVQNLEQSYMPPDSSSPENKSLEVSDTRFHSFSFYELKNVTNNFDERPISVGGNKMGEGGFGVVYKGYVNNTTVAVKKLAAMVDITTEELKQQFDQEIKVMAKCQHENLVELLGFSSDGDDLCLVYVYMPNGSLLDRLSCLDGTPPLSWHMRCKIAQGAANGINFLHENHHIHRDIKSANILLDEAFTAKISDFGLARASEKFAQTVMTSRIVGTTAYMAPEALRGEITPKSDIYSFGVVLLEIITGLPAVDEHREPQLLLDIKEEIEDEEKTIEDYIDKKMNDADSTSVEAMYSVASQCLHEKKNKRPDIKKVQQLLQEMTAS
Method in brief: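 GST-IRAK4 from insect cells (about 0.2 nM, linear range) was preincubated 15 min with compound (11 concentrations, 20 µM–0.073 nM) in HEPES pH 7.5 with MgCl2 and DTT before kinase reaction on a biotinylated peptide. Phosphopeptide was detected by TR-FRET (Eu anti-mouse-IgG/anti-phosphoserine/streptavidin-XL665, 1 h at 22°C) as the 665/620 nm ratio, normalized to no-compound and no-enzyme controls.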

[2] = biological target: T2, canine Irak4 (Canis lupus familiaris, UniProt A0A8I3S726); assay: Canine Irak4 kinase assay (TR-FRET); assay type: biochemical; details: 1 mM ATP, His6-tagged canine Irak4, average or median values
T2 sequence (A0A8I3S726 2-459): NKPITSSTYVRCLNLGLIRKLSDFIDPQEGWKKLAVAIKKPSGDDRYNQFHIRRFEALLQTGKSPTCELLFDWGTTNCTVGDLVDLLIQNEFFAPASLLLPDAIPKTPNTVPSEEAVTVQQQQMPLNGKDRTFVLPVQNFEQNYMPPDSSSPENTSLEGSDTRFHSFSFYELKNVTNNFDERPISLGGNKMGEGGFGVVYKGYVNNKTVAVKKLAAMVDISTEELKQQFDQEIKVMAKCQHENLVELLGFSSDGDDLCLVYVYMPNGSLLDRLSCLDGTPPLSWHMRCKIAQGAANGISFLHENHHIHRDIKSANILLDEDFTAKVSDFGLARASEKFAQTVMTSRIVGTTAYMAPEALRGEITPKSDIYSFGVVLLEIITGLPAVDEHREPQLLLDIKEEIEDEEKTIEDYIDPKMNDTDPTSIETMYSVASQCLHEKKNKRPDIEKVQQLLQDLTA

[3] = Metabolic stability in human liver microsomes; details: 1 µM compound; for CLblood, human microsomes: hepatic in vivo blood clearance calculated with well stirred liver model, '(stable)' given beside < 0.01; for Fmax, human microsomes: maximal oral bioavailability calculated with well stirred liver model, 0.5 mg/mL protein, '(stable)' given beside 100
[4] = Metabolic stability in dog liver microsomes; assay type: in vitro ADME; details: 1 µM compound; for CLblood, dog microsomes: hepatic in vivo blood clearance calculated with well stirred liver model, '(stable)' given beside < 0.01; for Fmax, dog microsomes: maximal oral bioavailability calculated with well stirred liver model, 0.5 mg/mL protein, '(stable)' given beside 100
Procedure: From the half-life the intrinsic clearances were calculated.

| SMILES | IC50 [1] | IC50 [2] | CLblood, human microsomes [3] | Fmax, human microsomes [3] | CLblood, dog microsomes [4] | Fmax, dog microsomes [4] |
| --- | --- | --- | --- | --- | --- | --- |
| CC(C)(O)C1CCN(c2nc(NC3CCS(=O)(=O)C3)nc3c2cnn3-c2cccc(C(F)(F)F)c2)CC1 (single isomer, unassigned; (+)) [Example I-4-2, (+)-2-(1-{6-[(1,1-dioxidotetrahydrothiophen-3-yl)amino]-1-[3-(trifluoromethyl)phenyl]-1H-pyrazolo[3,4-d]pyrimidin-4-yl}piperidin-4-yl)propan-2-ol] | 8.27 nM | 8.54 nM | 0.14 L/h/kg | 89% | – | – |
| O=C1C[C@H](Nc2nc(N3CC(N4CCOCC4)C3)c3cnn(-c4cccc(C(F)(F)F)c4)c3n2)CN1 [Example I-1-1, (4S)-4-({4-[3-(morpholin-4-yl)azetidin-1-yl]-1-[3-(trifluoromethyl)phenyl]-1H-pyrazolo-[3,4-d]pyrimidin-6-yl}amino)pyrrolidin-2-one] | 3.04 nM | 3.19 nM | – | – | – | – |
| CC(C)(O)C1CCN(c2nc(N[C@@H]3CNC(=O)C3)nc3c2cnn3-c2cccc(C(F)(F)F)c2)CC1 [Example I-2-1, (4S)-4-({4-[4-(2-hydroxypropan-2-yl)piperidin-1-yl]-1-[3-(trifluoromethyl)phenyl]-1H-pyrazolo[3,4-d]pyrimidin-6-yl}amino)pyrrolidin-2-one] | 7.19 nM | 8.7 nM | 0.32 L/h/kg | 76% | – | – |
| CC(C)(O)C1CCN(c2nc(NC3CCS(=O)(=O)CC3)nc3c2cnn3-c2cccc(C(F)(F)F)c2)CC1 [Example I-5, 2-(1-{6-[(1,1-dioxidotetrahydro-2H-thiopyran-4-yl)amino]-1-[3-(trifluoromethyl)phenyl]-1H-pyrazolo[3,4-d]pyrimidin-4-yl)piperidin-4-yl)propan-2-ol] | 10.5 nM | 9.27 nM | 0.09 L/h/kg | 93% | – | – |
| CN1CC[C@H](Nc2nc(N3CCC(C(C)(C)O)CC3)c3cnn(-c4cccc(C(F)(F)F)c4)c3n2)C1 [Example I-13-1, 2-[1-(6-{[(3S)-1-methylpyrrolidin-3-yl]amino}-1-[3-(trifluoromethyl)phenyl]-1H-pyrazolo[3,4-d]pyrimidin-4-yl)piperidin-4-yl]propan-2-ol] | 13.1 nM | 26.4 nM | 0.50 L/h/kg | 62% | – | – |
| CC(C)(O)C1CCN(c2nc(NC3CN(S(C)(=O)=O)C3)nc3c2cnn3-c2cccc(C(F)(F)F)c2)CC1 [Example I-14, 2-[1-(6-{[1-(methylsulfonyl)azetidin-3-yl]amino}-1-[3-(trifluoromethyl)phenyl]-1H-pyrazolo[3,4-d]pyrimidin-4-yl)piperidin-4-yl]propan-2-ol] | 12 nM | 12.7 nM | 0.07 L/h/kg | 95% | – | – |
| O=S1(=O)CCC(Nc2nc(N3CC(N4CCOCC4)C3)c3cnn(-c4cccc(C(F)(F)F)c4)c3n2)CC1 [Example I-23, N-(1,1-dioxidotetrahydro-2H-thiopyran-4-yl)-4-[3-(morpholin-4-yl)azetidin-1-yl]-1-[3-(trifluoromethyl)phenyl]-1H-pyrazolo[3,4-d]pyrimidin-6-amine] | 8.82 nM | 5.41 nM | 0.17 L/h/kg | 87% | – | – |
| CC(C)(O)C1CCN(c2nc(N[C@H]3C[C@](C)(N)C3)nc3c2cnn3-c2cccc(C(F)(F)F)c2)CC1 [Example I-57, 2-(1-{6-[(trans-3-amino-3-methylcyclobutyl)amino]-1-[3-(trifluoromethyl)phenyl]-1H-pyrazolo[3,4-d]pyrimidin-4-yl}piperidin-4-yl)propan-2-ol] | 1.82 nM | 1.98 nM | 0.04 L/h/kg | 97% | – | – |
| O[C@H]1C[C@@H](Nc2nc(N3CC(N4CCOCC4)C3)c3cnn(-c4cccc(C(F)(F)F)c4)c3n2)C1 [Example I-72, cis-3-({4-[3-(morpholin-4-yl)azetidin-1-yl]-1-[3-(trifluoromethyl)phenyl]-1H-pyrazolo[3,4-d]pyrimidin-6-yl}amino)cyclobutanol] | 7.31 nM | – | 0.28 L/h/kg | 79% | 0.10 L/h/kg | 95% |
| CN1CC[C@H](Nc2nc(N3CCC(C(C)(C)O)CC3)c3cnn(-c4cccc(C(F)F)c4)c3n2)C1 [II-4, 2-[1-(1-[3-(difluoromethyl)phenyl]-6-{[(3S)-1-methylpyrrolidin-3-yl]amino}-1H-pyrazolo-[3,4-d]pyrimidin-4-yl)piperidin-4-yl]propan-2-ol] | 3.33 nM | – | < 0.01 (stable) L/h/kg | 100 (stable) % | < 0.01 (stable) L/h/kg | 100 (stable) % |
| CC(C)(O)C1CCN(c2nc(NC3CCS(=O)(=O)CC3)nc3c2cnn3-c2cccc(C(F)F)c2)CC1 [II-5, 2-(1-{1-[3-(difluoromethyl)phenyl]-6-[(1,1-dioxidotetrahydro-2H-thiopyran-4-yl)amino]-1H-pyrazolo[3,4-d]pyrimidin-4-yl}piperidin-4-yl)propan-2-ol] | 3.45 nM | – | 0.10 L/h/kg | 93% | 0.24 L/h/kg | 89% |
| CC(C)(O)C1CCN(c2nc(N[C@H]3CCS(=O)(=O)C3)nc3c2cnn3-c2cccc(C(F)F)c2)CC1 [II-6, 2-[1-(1-[3-(difluoromethyl)phenyl]-6-{[(3S)-1,1-dioxidotetrahydrothiophen-3-yl]amino}-1H-pyrazolo[3,4-d]pyrimidin-4-yl)piperidin-4-yl]propan-2-ol] | 5.49 nM | – | 0.19 L/h/kg | 86% | 0.46 L/h/kg | 78% |
| CC(C)(O)C1CCN(c2nc(NC3CN(S(C)(=O)=O)C3)nc3c2cnn3-c2cccc(C(F)F)c2)CC1 [II-12, 2-[1-(1-[3-(difluoromethyl)phenyl]-6-{[1-(methylsulfonyl)azetidin-3-yl]amino}-1H-pyrazolo[3,4-d]pyrimidin-4-yl)piperidin-4-yl]propan-2-ol] | 2.98 nM | – | 0.25 L/h/kg | 81% | 0.42 L/h/kg | 80% |
| CC(C)(O)C1CCN(c2nc(N[C@@H]3CNC(=O)C3)nc3c2cnn3-c2cccc(OC(F)F)c2)CC1 [IV-1, (4S)-4-({1-[3-(difluoromethoxy)phenyl]-4-[4-(2-hydroxypropan-2-yl)piperidin-1-yl]-1H-pyrazolo[3,4-d]pyrimidin-6-yl}amino)pyrrolidin-2-one] | 8.06 nM | 6.52 nM | 0.18 L/h/kg | 86% | – | – |
| CC(C)(O)C1CCN(c2nc(N[C@H]3C[C@H](S(C)(=O)=O)C3)nc3c2cnn3-c2cccc(OC(F)F)c2)CC1 [IV-2, 2-[1-(1-[3-(difluoromethoxy)phenyl]-6-{[trans-3-(methylsulfonyl)cyclobutyl]amino}-1H-pyrazolo[3,4-d]pyrimidin-4-yl)piperidin-4-yl]propan-2-ol] | 3.42 nM | – | 0.32 L/h/kg | 76% | < 0.01 (stable) L/h/kg | 100 (stable) % |
